Measured values as given in patent publication US20150283237A1, “CTLA-4 BLOCKADE WITH METRONOMIC CHEMOTHERAPY FOR THE TREATMENT OF CANCER” (priority 2014, published 2015).
Where a name gives a salt, the structure may show the parent alone.

Tests used:
EMT-6/P tumors = assay: Growth and event-free survival of subcutaneously implanted EMT-6/P tumors in BALB/c mice; type: in vivo, mouse; details: first experiment, FIG. 1A; s.c. EMT-6/P tumors in BALB/c mice, therapy from 50 mm3
Procedure: The combination of CTLA-4 blockade with metronomic chemotherapy regimens was evaluated. Murine EMT-6 breast tumor cells were subcutaneously implanted into syngeneic BALB/c mice (n=6-8/group) and therapies on the established tumors were evaluated. Murine CTLA-4 blockade was achieved using anti-mouse CD152 (CTLA-4), clone 9H10, injected on day 1 (100 μg/mouse) and on day 6 (35 μg/mouse) of therapy. Anti-CTLA-4 therapy was administered alone or combined with metronomic regimens. These included: (a) bolus (150 mg/kg, i.p.) CTX followed by metronomic CTX (20 mg/kg/day, p.o.), (b) metronomic CTX, and (c) sequential gemcitabine therapy (160 mg/kg every 3 days, i.p.) given when the tumors relapsed after the anti-CTLA-4 therapy.
Anti-CTLA-4 therapy combined with bolus plus low-dose CTX. To evaluate whether metronomic CTX regimens could be combined effectively with an anti-CTLA-4 treatment, a combination regimen was tested on subcutaneously implanted EMT-6/P tumors (FIG. 1A). For the chemotherapy component, a bolus with low dose CTX protocol consisting of a bolus of CTX (given on day 1 as a 150 mg/kg, i.p. injection) plus low-dose CTX (20 mg/kg/day, p.o., from day 1) was used. […]
Mice were monitored twice weekly for tumor growth, as measured using Vernier calipers, and calculated using the formula (length×width)/2, and for fluctuations in body weight. […]

[1] = mouse, in vivo
Source text: To assess the relative toxicity of the therapies, body weights of the mice over the course of the experiment was monitored, as in the previous studies (du Manoir et al., Clin Cancer Res., 2006, 12:904-16; Francia et al., Mol Cancer Ther., 2012, 11:680-89).
Mice were monitored twice weekly for tumor growth, as measured using Vernier calipers, and calculated using the formula (length×width)/2, and for fluctuations in body weight. Institutional guidelines were followed to determine when the experimental end points were reached. Results were also plotted as event-free survival (Kaplan-Meier analysis) over time, where the duration of event-free survival was defined as time to primary tumor progression beyond 1,200 mm3 or >15% weight loss, as in the previous study (du Manoir et al., Clin Cancer Res., 2006, 12, 904-16).

Row | SMILES | impact of therapy on tumor growth (EMT-6/P tumors) | body weight change / toxicity [1]
1 | O=P1(N(CCCl)CCCl)NCCCO1 (centres unmarked) [bolus with low dose CTX, Cyclophosphamide] | minimal reduction in tumor growth | –
2 | Nc1ccn([C@@H]2O[C@H](CO)[C@@H](O)C2(F)F)c(=O)n1 [gemcitabine, Gemcitabine hydrochloride] | – | slight weight drop
